Tested on: PBMC (polyclonal gluten-specific T cells) of paediatric and adult CD patients
Assay: IFN-γ ELISpot of PBMC after 3 day oral wheat challenge (SFU, % of maximal peptide response, dominance scores, EC50; Examples 5-6)
Type: cell-based, human
Conditions: for IFN-γ ELISpot response: after oral wheat challenge; for Cross-reactive T cell response: following wheat challenge
[1] = patient A, 11-17 yrs, cut-off 10 SFU
[2] = patient D, max peptide 30.5 SFU
[3] = patient E, H, 11-17 yrs, cut-off 10 SFU
[4] = patient F, 11-17 yrs, cut-off 10 SFU
[5] = patient G, 11-17 yrs, cut-off 10 SFU
[6] = patient H (HLA-DQ2.5 homozygote), 3-5yrs, cut-off 10 SFU
[7] = patient H, 11-17 yrs, cut-off 10 SFU
[8] = patient ID not given, 11-17 yrs, cut-off 10 SFU
[9] = patient ID not given, max peptide 95 SFU
[10] = patient N, 3-5yrs, cut-off 10 SFU
[11] = patient P, 11-17 yrs, cut-off 21.6 SFU
[12] = patient Q, 11-17 yrs, cut-off 10 SFU
[13] = patient U, H, 11-17 yrs, cut-off 10 SFU
[14] = patient V, 6-10 yrs, cut-off 10 SFU
[15] = patient Y, 6-10 yrs, cut-off 10 SFU
[16] = patient eleven, 6-10 yrs, cut-off 10 SFU
[17] = patient eleven, max peptide 57 SFU
[18] = patient five, max peptide 48 SFU
[19] = patient four, 3-5yrs, cut-off 10 SFU
[20] = patient four, max peptide 44 SFU
[21] = patient seven, 6-10 yrs, cut-off 10.5 SFU
[22] = patient ten, 3-5yrs, cut-off 10 SFU
[23] = patient three, 6-10 yrs, cut-off 10.5 SFU
[24] = patient twelve, 11-17 yrs, cut-off 10 SFU
[25] = patient two, 3-5yrs, cut-off 10 SFU
[26] = patient two, max peptide 60 SFU
[27] = subject I (3-5yrs/6-10yrs part)
[28] = subject J (3-5yrs/6-10yrs part)
[29] = subject K (3-5yrs/6-10yrs part)
[30] = subject V (3-5yrs/6-10yrs part)
[31] = subject W (3-5yrs/6-10yrs part)
[32] = subject Y (3-5yrs/6-10yrs part)
[33] = subject five (3-5yrs/6-10yrs part)
[34] = subject seven (3-5yrs/6-10yrs part)
[35] = subject six (3-5yrs/6-10yrs part)
[36] = subject ten (3-5yrs/6-10yrs part)
[37] = subject two (3-5yrs/6-10yrs part)

LQPFPQPQLPYPQP
IFN-γ ELISpot response [1]: 1 SFU
Significant response as percentage of maximal peptide SFU [2]: ′′ (21-40% = ′′)
IFN-γ ELISpot response [3]: 86 SFU
Significant response as percentage of maximal peptide SFU (patient E, max peptide 224 SFU): ′′ (21-40% = ′′)
IFN-γ ELISpot response [4]: 64 SFU
Significant response as percentage of maximal peptide SFU (patient F, max peptide 178 SFU): ′′ (21-40% = ′′)
IFN-γ ELISpot response [5]: 3 SFU
IFN-γ ELISpot response [6]: 22 SFU
IFN-γ ELISpot response [7]: 14 SFU
Significant response as percentage of maximal peptide SFU (patient H, max peptide 17 SFU): + (>70% = +)
IFN-γ ELISpot response [8]: 51 SFU
Significant response as percentage of maximal peptide SFU [9]: ′′′ (41-70% = ′′′)
Significant response as percentage of maximal peptide SFU (patient II, max peptide 15 SFU): + (>70% = +)
Significant response as percentage of maximal peptide SFU (patient J, max peptide 196 SFU): ′′′ (41-70% = ′′′)
Significant response as percentage of maximal peptide SFU (patient K, max peptide 53 SFU): ′ (11-20% = ′)
Significant response as percentage of maximal peptide SFU (patient M, max peptide 48 SFU): ′′′ (41-70% = ′′′)
IFN-γ ELISpot response [10]: 4 SFU
IFN-γ ELISpot response [11]: 25 SFU
Significant response as percentage of maximal peptide SFU (patient P, max peptide 64 SFU): ′′ (21-40% = ′′)
IFN-γ ELISpot response [12]: 38 SFU
Significant response as percentage of maximal peptide SFU (patient Q, max peptide 97 SFU): ′′ (21-40% = ′′)
IFN-γ ELISpot response [13]: 35 SFU
IFN-γ ELISpot response [14]: 10 SFU
Significant response as percentage of maximal peptide SFU (patient V, max peptide 35 SFU): ′′ (21-40% = ′′)
IFN-γ ELISpot response [15]: 14 SFU
Significant response as percentage of maximal peptide SFU (patient Y, max peptide 16 SFU): + (>70% = +)
IFN-γ ELISpot response [16]: 29 SFU
Significant response as percentage of maximal peptide SFU [17]: ′′′ (41-70% = ′′′)
Significant response as percentage of maximal peptide SFU [18]: ′′′ (41-70% = ′′′)
IFN-γ ELISpot response [19]: 17 SFU
Significant response as percentage of maximal peptide SFU [20]: ′′ (21-40% = ′′)
IFN-γ ELISpot response [21]: 5 SFU
IFN-γ ELISpot response [22]: 5 SFU
IFN-γ ELISpot response [23]: 93 SFU
IFN-γ ELISpot response [24]: 10 SFU
IFN-γ ELISpot response [25]: 21 SFU
Significant response as percentage of maximal peptide SFU [26]: ′′ (21-40% = ′′)

LQPRPQPELPYPQP
IFN-γ ELISpot response [1]: 6 SFU
Significant response as percentage of maximal peptide SFU [2]: ′′′ (41-70% = ′′′)
IFN-γ ELISpot response [3]: 142 SFU
Significant response as percentage of maximal peptide SFU (patient E, max peptide 224 SFU): ′′′ (41-70% = ′′′)
IFN-γ ELISpot response [4]: 178 SFU
Significant response as percentage of maximal peptide SFU (patient F, max peptide 178 SFU): + (>70% = +)
IFN-γ ELISpot response [5]: 4 SFU
IFN-γ ELISpot response [6]: 45 SFU
IFN-γ ELISpot response [7]: 10 SFU
Significant response as percentage of maximal peptide SFU (patient H, max peptide 17 SFU): ′′′ (41-70% = ′′′)
IFN-γ ELISpot response [8]: 89 SFU
Significant response as percentage of maximal peptide SFU [9]: + (>70% = +)
Significant response as percentage of maximal peptide SFU (patient II, max peptide 15 SFU): ′′′ (41-70% = ′′′)
Significant response as percentage of maximal peptide SFU (patient J, max peptide 196 SFU): + (>70% = +)
Significant response as percentage of maximal peptide SFU (patient K, max peptide 53 SFU): ′′′ (41-70% = ′′′)
Significant response as percentage of maximal peptide SFU (patient L, max peptide 11 SFU): + (>70% = +)
Significant response as percentage of maximal peptide SFU (patient M, max peptide 48 SFU): + (>70% = +)
IFN-γ ELISpot response [10]: 7 SFU
IFN-γ ELISpot response [11]: 64 SFU
Significant response as percentage of maximal peptide SFU (patient P, max peptide 64 SFU): + (>70% = +)
IFN-γ ELISpot response [12]: 97 SFU
Significant response as percentage of maximal peptide SFU (patient Q, max peptide 97 SFU): + (>70% = +)
IFN-γ ELISpot response [13]: 81 SFU
Significant response as percentage of maximal peptide SFU (patient U, max peptide 81 SFU): + (>70% = +)
IFN-γ ELISpot response [14]: 30 SFU
Significant response as percentage of maximal peptide SFU (patient V, max peptide 35 SFU): + (>70% = +)
IFN-γ ELISpot response [15]: 11 SFU
Significant response as percentage of maximal peptide SFU (patient Y, max peptide 16 SFU): ′′′ (41-70% = ′′′)
IFN-γ ELISpot response [16]: 38 SFU
Significant response as percentage of maximal peptide SFU [17]: ′′′ (41-70% = ′′′)
Significant response as percentage of maximal peptide SFU [18]: + (>70% = +)
IFN-γ ELISpot response [19]: 24 SFU
Significant response as percentage of maximal peptide SFU [20]: ′′′ (41-70% = ′′′)
IFN-γ ELISpot response [21]: 6 SFU
IFN-γ ELISpot response [22]: 6 SFU
IFN-γ ELISpot response [23]: 146 SFU
IFN-γ ELISpot response [24]: 18 SFU
IFN-γ ELISpot response [25]: 36 SFU
Significant response as percentage of maximal peptide SFU [26]: ′′′ (41-70% = ′′′)

NPLQPEQPFPLQPQPP
Cross-reactive T cell response (subject A, 11-17yrs): 3 SFU
Significant response as a percentage of maximal peptide SFU (subject D, 11-17yrs): ′′ (21-40% = ′′)
Cross-reactive T cell response (subject D, 11-17yrs): 12 SFU
Significant response as a percentage of maximal peptide SFU (subject E, 11-17yrs): (6-10% - ^)
Cross-reactive T cell response (subject E, 11-17yrs): 21 SFU
Significant response as a percentage of maximal peptide SFU (subject F, 11-17yrs): ′ (11-20% = ′)
Cross-reactive T cell response (subject F, 11-17yrs): 25 SFU
Cross-reactive T cell response (subject G, 11-17yrs): 1 SFU
Significant response as a percentage of maximal peptide SFU (subject H, 11-17yrs): + (>70% = +)
Cross-reactive T cell response (subject H): 14 SFU
Cross-reactive T cell response [27]: 1 SFU
Significant response as a percentage of maximal peptide SFU (subject J): ′ (11-20% = ′)
Cross-reactive T cell response [28]: 38 SFU
Significant response as a percentage of maximal peptide SFU (subject K): ′′ (21-40% = ′′)
Cross-reactive T cell response [29]: 19 SFU
Cross-reactive T cell response (subject P, 11-17yrs): 6 SFU
Significant response as a percentage of maximal peptide SFU (subject Q, 11-17yrs): ′′ (21-40% = ′′)
Cross-reactive T cell response (subject Q, 11-17yrs): 23 SFU
Significant response as a percentage of maximal peptide SFU (subject T, 11-17yrs): ′′ (21-40% = ′′)
Cross-reactive T cell response (subject T, 11-17yrs): 33 SFU
Cross-reactive T cell response (subject U, 11-17yrs): 9 SFU
Cross-reactive T cell response [30]: 6 SFU
Cross-reactive T cell response [31]: 7 SFU
Cross-reactive T cell response [32]: 3 SFU
Significant response as a percentage of maximal peptide SFU (subject five): ′′ (21-40% = ′′)
Cross-reactive T cell response [33]: 14 SFU
Cross-reactive T cell response (subject nine, 11-17yrs): 1 SFU
Cross-reactive T cell response [34]: 4 SFU
Significant response as a percentage of maximal peptide SFU (subject six): + (>70% = +)
Cross-reactive T cell response [35]: 13 SFU
Significant response as a percentage of maximal peptide SFU (subject ten): + (>70% = +)
Cross-reactive T cell response [36]: 11 SFU
Significant response as a percentage of maximal peptide SFU (subject two): ′ (11-20% = ′)
Cross-reactive T cell response [37]: 10 SFU

PEQPFPEQPEQPF
IFN-γ ELISpot response [1]: 2 SFU
IFN-γ ELISpot response [3]: 14 SFU
Significant response as percentage of maximal peptide SFU (patient E, max peptide 224 SFU): (6-10% = ^)
IFN-γ ELISpot response [4]: 2 SFU
IFN-γ ELISpot response [5]: 2 SFU
IFN-γ ELISpot response [6]: 4 SFU
IFN-γ ELISpot response [7]: 9 SFU
IFN-γ ELISpot response [8]: 15 SFU
Significant response as percentage of maximal peptide SFU [9]: ′ (11-20% = ′)
Significant response as percentage of maximal peptide SFU (patient J, max peptide 196 SFU): ′ (11-20% = ′)
Significant response as percentage of maximal peptide SFU (patient K, max peptide 53 SFU): ′′ (21-40% = ′′)
IFN-γ ELISpot response [10]: 0 SFU
IFN-γ ELISpot response [11]: 10 SFU
IFN-γ ELISpot response [12]: 11 SFU
Significant response as percentage of maximal peptide SFU (patient Q, max peptide 97 SFU): ′ (11-20% = ′)
IFN-γ ELISpot response [13]: 5 SFU
IFN-γ ELISpot response [14]: 3 SFU
IFN-γ ELISpot response [15]: 2 SFU
IFN-γ ELISpot response [16]: 12 SFU
Significant response as percentage of maximal peptide SFU [17]: ′′ (21-40% = ′′)
IFN-γ ELISpot response [19]: 4 SFU
Significant response as percentage of maximal peptide SFU (patient nine, max peptide 10 SFU): + (>70% = +)
IFN-γ ELISpot response [21]: 5 SFU
IFN-γ ELISpot response [22]: 11 SFU
Significant response as percentage of maximal peptide SFU (patient ten, max peptide 14.5 SFU): + (>70% = +)
IFN-γ ELISpot response [23]: 24 SFU
IFN-γ ELISpot response [24]: 1 SFU
IFN-γ ELISpot response [25]: 9 SFU

PEQPFPEQPQPYPQQP
Cross-reactive T cell response (subject A, 11-17yrs): 2 SFU
Cross-reactive T cell response (subject D, 11-17yrs): 2 SFU
Significant response as a percentage of maximal peptide SFU (subject E, 11-17yrs): (6-10% - ^)
Cross-reactive T cell response (subject E, 11-17yrs): 13 SFU
Cross-reactive T cell response (subject F, 11-17yrs): 6 SFU
Cross-reactive T cell response (subject G, 11-17yrs): 2 SFU
Cross-reactive T cell response (subject H): 6 SFU
Cross-reactive T cell response [27]: 2 SFU
Significant response as a percentage of maximal peptide SFU (subject J): ′ (11-20% = ′)
Cross-reactive T cell response [28]: 36 SFU
Cross-reactive T cell response [29]: 6 SFU
Cross-reactive T cell response (subject P, 11-17yrs): 10 SFU
Cross-reactive T cell response (subject Q, 11-17yrs): 2 SFU
Cross-reactive T cell response (subject T, 11-17yrs): 0 SFU
Cross-reactive T cell response (subject U, 11-17yrs): 1 SFU
Cross-reactive T cell response [30]: 1 SFU
Cross-reactive T cell response [31]: 9 SFU
Cross-reactive T cell response [32]: 1 SFU
Cross-reactive T cell response [33]: 1 SFU
Cross-reactive T cell response (subject nine, 11-17yrs): 1 SFU
Cross-reactive T cell response [34]: 4 SFU
Cross-reactive T cell response [35]: 5 SFU
Significant response as a percentage of maximal peptide SFU (subject ten): + (>70% = +)
Cross-reactive T cell response [36]: 12 SFU
Cross-reactive T cell response [37]: 1 SFU

— patent publication US20170232083A1, “METHODS OF DIAGNOSIS AND TREATMENT OF CELIAC DISEASE IN CHILDREN” (priority 2014, published 2017)
